≈ marks a conversion by molar mass, not a printed value. Read-outs that look alike come from different tables or passages of the source.
Columns and labels:
[1] = system: HCMV recombinant mutant virus whose genome contains the prokaryotic beta-glucuronidase gene; experiment: microbe, parasite or virus in culture; format: cell-based, human cytomegalovirus; details: for IC50: Human betaherpesvirus 5, Fibroblast
Procedure, shortened: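 Antiviral IC50 estimated from reduced reporter activity across compound amounts: lysates prepared 96 h after infection were tested with p-nitrophenyl- or methylumbelliferyl-glucuronide. Cells were human foreskin fibroblasts, infected alongside inhibitor with HCMV (e.g. RV145) expressing viral promoter-driven beta-glucuronidase.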

HSV- I = experiment: HSV antiviral (ELISA) assay; format: cell-based; details: for IC50: read-out: IC50 (ug/ml) HSV
Procedure, shortened: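 IC50 from fluorescence versus untreated control in a cell ELISA: anti-glycoprotein D antibody, β-galactosidase-conjugated secondary, 4-methyl umbelliferone read at 365/450 nm. Vero cells (2% FBS DMEM) received compound 30 min pre-infection with HSV-1 at MOI 0.006, fixed ~24 h post-infection.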

VZV strain Ellen = experiment: VZV antiviral (ELISA) assay; format: cell-based
Procedure, shortened: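 HFF cells infected with VZV Ellen at multiplicity below 0.1 overnight, then mixed infected/uninfected cells seeded with compound in DMEM/2% FBS and incubated three days at 37°C, 5% CO2.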

[2] = Human alphaherpesvirus 3, read-out: % inhibition 10 ug/ml VZV, 10 ug/ml, VZV strain Ellen, HFF cells, ELISA
[3] = Human alphaherpesvirus 3, VZV strain Ellen, HFF cells, ELISA, read-out: IC50 (ug/ml) VZV
[4] = read-out: IC50 ug/ml HCMV, HCMV, human foreskin fibroblasts
[5] = Human alphaherpesvirus 3, HFF, read-out: % inhibition 10 ug/ml VZV
[6] = Human alphaherpesvirus 3, HFF, read-out: IC50 (ug/ml) VZV
[7] = Human alphaherpesvirus 3, HFF, read-out: IC50 (ug/ml) VZV, VZV strain Ellen, HFF cells, ELISA

| Compound | IC50 (HSV- I; HSV- I, Vero cells, ELISA) [µg/mL] | IC50 [1, 4] [µg/mL] | inhibition at 10 µg/mL (VZV strain Ellen; [5]) [%] | IC50 (VZV strain Ellen; [6]) [µg/mL] | further results |
| --- | --- | --- | --- | --- | --- |
| Cc1cccc(NC(=S)Nc2ccc(NC(=O)c3ccccc3F)cc2)c1 [Example 432, 2-Fluoro-N-[4-(3-m-tolyl-thioureido)-phenyl]-benzamide] | 1.6 (≈ 4.22 µM) |  |  |  | IC50 ([1]; read-out: IC50 ug/ml HCMV): 10 µg/mL (≈ 26.4 µM); inhibition at 10 µg/mL (VZV strain Ellen; [2]): 0%; IC50 (VZV strain Ellen; [3]): > 10 µg/mL |
| CC(NC(=S)Nc1ccc(NC(=O)c2cccc(F)c2)cc1)c1ccc(F)cc1 (stereo not drawn) [Example 800, 3-Fluoro-N-(4-{3-[1-(4-fluoro-phenyl)-ethyl]-thioureido}-phenyl)-benzamide] | > 10 |  |  |  | IC50 ([1]; read-out: IC50 ug/ml HCMV): > 10 µg/mL; IC50 (VZV strain Ellen; [3]): > 7.5 µg/mL |
| Nc1c(Br)cc(NC(=S)Nc2ccc(NC(=O)c3ccccc3F)cc2)cc1Br [Example 519, N-{4-[3-(4-Amino-3,5-dibromo-phenyl)-thioureido]-phenyl}-2-fluoro-benzamide] | 0.4 (≈ 0.743 µM) |  |  |  | IC50 ([1]; read-out: IC50 ug/ml HCMV): 1.7 µg/mL (≈ 3.16 µM); inhibition at 10 µg/mL (VZV strain Ellen; [2]): 18%; IC50 (VZV strain Ellen; [3]): > 10 µg/mL |
| CC(C)(C)c1cccc(NC(=S)Nc2ccc(NC(=O)c3ccccc3F)cc2)c1 [Example 869, N-{4-[3-(3-tert-Butyl-phenyl)-thioureido]-phenyl}-2-fluoro-benzamide] | 5.5 (≈ 13 µM) | 2.5 (≈ 5.93 µM) | 77 | 3 (≈ 7.12 µM) |  |
| O=C(Nc1ccc(NC(=S)NCc2ccc(Cl)c(Cl)c2)cc1)c1ccccc1F [Example 538, N-{4-[3-(3,4-Dichloro-benzyl)-thioureido]-phenyl}-2-fluoro-benzamide] |  | > 10 |  |  | IC50 (HSV- I; Vero): > 10 µg/mL; IC50 (VZV strain Ellen; [7]): 10 µg/mL (≈ 22.3 µM) |
| CC(NC(=S)Nc1ccc(NC(=O)c2ccccc2F)cc1)c1cc2ccccc2o1 (stereo not drawn) [Example 1002, N-{4-[3-(1-Benzofuran-2-yl-ethyl)-thioureido]-phenyl}-2-fluoro-benzamide] |  | 2.1 (≈ 4.84 µM) |  |  | IC50 (HSV- I; Vero): > 10 µg/mL; IC50 (VZV strain Ellen; [7]): 0.08 µg/mL (≈ 0.185 µM) |
| CC(NC(=S)Nc1ccc(NC(=O)c2ccccc2)cc1)c1ccc(F)cc1 (stereo not drawn) [Example 758, N-(4-{3-[1-(4-Fluoro-phenyl)-ethyl]-thioureido}-phenyl)-benzamide] | > 10 |  |  |  | IC50 ([1]; read-out: IC50 ug/ml HCMV): > 10 µg/mL; IC50 (VZV strain Ellen; [3]): > 10 µg/mL |
| COc1cc(OC)c(NC(=S)Nc2ccc(NC(=O)c3ccccc3F)cc2)cc1Br [Example 827, N-{4-[3-(5-Bromo-2,4-dimethoxy-phenyl)-thioureido]-phenyl}-2-fluoro-benzamide] | 0.2 (≈ 0.397 µM) | 10 (≈ 19.8 µM) | 70 | 3.5 (≈ 6.94 µM) |  |
| Cc1ccc(NC(=S)Nc2ccc(NC(=O)c3ccccc3F)cc2)cc1F [Example 997, 2-Fluoro-N-{4-[3-(3-fluoro-4-methyl-phenyl)-thioureido]-phenyl}-benzamide] | 1.9 (≈ 4.78 µM) |  |  |  | IC50 ([1]; read-out: IC50 ug/ml HCMV): 4 µg/mL (≈ 10.1 µM); IC50 (VZV strain Ellen; [3]): > 10 µg/mL |
| O=C(CN1CCCC1)Nc1ccc(NC(=S)Nc2ccc(NC(=O)c3ccccc3F)cc2)cc1Cl [Example 417, N-(4-{3-[3-Chloro-4-(2-pyrrolidin-1-yl-acetylamino)-phenyl]-thioureido}-phenyl)-2-fluoro-benzamide] | 6 (≈ 11.4 µM) | > 10 | 15 | > 10 |  |
| COc1ccc(NC(=S)Nc2ccc(NC(=O)c3ccccc3F)cc2)cc1I [Example 810, 2-Fluoro-N-{4-[3-(3-iodo-4-methoxy-phenyl)-thioureido]-phenyl}-benzamide] | 1.1 (≈ 2.11 µM) |  |  |  | IC50 ([1]; read-out: IC50 ug/ml HCMV): 2.7 µg/mL (≈ 5.18 µM); IC50 (VZV strain Ellen; [3]): > 7.5 µg/mL |
| COc1cccc(C(C)NC(=S)Nc2ccc(NC(=O)c3ccccc3F)cc2)c1 (stereo not drawn) [Example 789, 2-Fluoro-N-(4-{3-[1-(3-methoxy-phenyl)-ethyl]-thioureido}-phenyl)-benzamide] |  | > 2.2 |  |  | IC50 (HSV- I; Vero): > 10 µg/mL; IC50 (VZV strain Ellen; [7]): 1.5 µg/mL (≈ 3.54 µM) |
| O=C(Nc1ccc(NC(=S)Nc2ccccc2Cl)cc1)c1ccccc1F [Example 948, N-{4-[3-(2-Chloro-phenyl)-thioureido]-phenyl}-2-fluoro-benzamide] | 6 (≈ 15 µM) | 4 (≈ 10 µM) | 4 | > 10 |  |
| COc1cccc(C(=O)Nc2ccc(NC(=S)Nc3cc(Cl)c(OC)cc3OC)cc2)c1 [Example 120, N-{4-[3-(5-Chloro-2,4-dimethoxy-phenyl)-thioureido]-phenyl}-3-methoxy-benzamide] | 0.8 (≈ 1.7 µM) | 5 (≈ 10.6 µM) | 25 | > 10 |  |
| COc1cc(C)c(Cl)cc1NC(=S)Nc1ccc(NC(=O)c2ccccc2C)cc1 [Example 850, N-{4-[3-(5-Chloro-2-methoxy-4-methyl-phenyl)-thioureido]-phenyl}-2-methyl-benzamide] | 0.09 (≈ 0.205 µM) | 2 (≈ 4.55 µM) | 28 | 5 (≈ 11.4 µM) |  |
| COc1cc(OC)c(NC(=S)Nc2ccc(NC(=O)c3ccc(F)cc3)cc2)cc1Cl [Example 116, N-{4-[3-(5-Chloro-2,4-dimethoxy-phenyl)-thioureido]-phenyl}-4-fluoro-benzamide] |  | 3 (≈ 6.52 µM) | 0 | > 10 | IC50 (HSV- I; Vero): 2 µg/mL (≈ 4.35 µM) |
| COc1cc(OC)c(NC(=S)Nc2ccc(NC(=O)c3cc(F)ccc3F)cc2)cc1Cl [Example 187, N-{4-[3-(5-Chloro-2,4-dimethoxy-phenyl)-thioureido]-phenyl}-2,5-difluoro-benzamide] | 0.2 (≈ 0.418 µM) | > 10 | 53 | > 10 |  |
| CC(C)C(NC(=S)Nc1ccc(NC(=O)c2ccccc2F)cc1)c1ccc(F)cc1 (stereo not drawn) [Example 790, 2-Fluoro-N-(4-{3-[1-(4-fluoro-phenyl)-2-methyl-propyl]-thioureido}-phenyl)-benzamide] |  | 1.5 (≈ 3.41 µM) |  |  | IC50 (HSV- I; Vero): > 10 µg/mL; IC50 (VZV strain Ellen; [7]): 2.5 µg/mL (≈ 5.69 µM) |
| CC(NC(=S)Nc1ccc(NC(=O)c2ccc(O)cc2)cc1)c1ccc(F)cc1 (stereo not drawn) [Example 760, N-(4-{3-[1-(4-Fluoro-phenyl)-ethyl]-thioureido}-phenyl)-4-hydroxy-benzamide] | > 10 |  |  |  | IC50 ([1]; read-out: IC50 ug/ml HCMV): > 10 µg/mL; IC50 (VZV strain Ellen; [3]): > 10 µg/mL |
| CCOC(=O)Nc1cccc(C(=O)Nc2ccc(NC(=S)Nc3cc(Cl)c(OC)cc3OC)cc2)c1 [Example 180, (3-{4-[3-(5-Chloro-2,4-dimethoxy-phenyl)-thioureido]-phenylcarbamoyl}-phenyl)-carbamic acid ethyl ester] |  | 1.5 (≈ 2.84 µM) | 36 |  | IC50 (HSV- I; Vero): 1.3 µg/mL (≈ 2.46 µM); IC50 (VZV strain Ellen; [7]): > 10 µg/mL |
| COc1cc(OC)c(NC(=S)Nc2ccc(NC(=O)c3ccccc3F)cc2)cc1Cl [Example 118, N-{4-[3-(5-Chloro-2,4-dimethoxy-phenyl)-thioureido]-phenyl}-2-fluoro-benzamide] |  | 3 (≈ 6.52 µM) |  |  | IC50 (HSV- I; Vero): 0.15 µg/mL (≈ 0.326 µM); IC50 (VZV strain Ellen; [7]): > 10 µg/mL |
| COc1cccc(C(=O)Nc2ccc(NC(=S)Nc3ccc(N(C)C4CCCCC4)c(Cl)c3)cc2)c1 [Example 250, N-(4-{3-[3-Chloro-4-(cyclohexyl-methyl-amino)-phenyl]-thioureido}-phenyl)-3-methoxy-benzamide] | > 10 | > 10 | 42 | > 10 |  |
| COc1c(Cl)cc(NC(=S)Nc2ccc(NC(=O)c3cccc(F)c3)cc2)cc1Cl [Example 872, N-{4-[3-(3,5-Dichloro-4-methoxy-phenyl)-thioureido]-phenyl}-3-fluoro-benzamide] | 4 (≈ 8.61 µM) | 0.6 (≈ 1.29 µM) | 28 | > 10 |  |
| CN1CCC(N(C)c2ccc(NC(=S)Nc3ccc(NC(=O)c4c(F)cccc4F)cc3)cc2Cl)C1 (stereo not drawn) [Example 349, N-[4-(3-{3-Chloro-4-[methyl-(1-methyl-pyrrolidin-3-yl)-amino]-phenyl}-thioureido)-phenyl]-2,6-difluoro-benzamide] | 5 (≈ 9.43 µM) | 1.2 (≈ 2.26 µM) | 110 | 4 (≈ 7.55 µM) |  |
| N-{4-[3-(3-Chloro-4-methoxy-phenyl)-thioureido]-phenyl}-4-methoxy-benzamide [Example 821] |  |  |  |  | IC50 ug/ml HCMV ([1]; HCMV, human foreskin fibroblasts): 1 µg/mL; IC50 (ug/ml) HSV (HSV- I; HSV- I, Vero cells, ELISA): 0.15 µg/mL; % inhibition 10 ug/ml VZV (VZV strain Ellen; 10 ug/ml, VZV strain Ellen, HFF cells, ELISA): 55%; IC50 (ug/ml) VZV (VZV strain Ellen; VZV strain Ellen, HFF cells, ELISA): >10 µg/mL |
